Assay results published in ChEMBL document CHEMBL4811216, “Chemotherapy for human schistosomiasis: how far have we come? What's new? Where do we go from here?” (RSC Med Chem, 2020).
pEC50, pIC50: −log10 of the molar value.

Tests used:
Schistosoma japonicum [1] = test: Antischistosomal activity against Schistosoma japonicum infected in ICR mouse assessed as total worm reduction at 250 mg/kg, po administered as single dose relative to control; assay type: functional; parameters: scale not given: the % may be the effect or the level left
Schistosoma japonicum [2] = test: Schistosomicidal-activity against adult Schistosoma japonicum at 10 uM incubated for 72 hrs by inverted microscopic method relative to control; assay type: functional
Schistosoma mansoni [3] = test: Antischistosomal activity against adult Schistosoma mansoni LE assessed as reduction in motor activity at 50 uM measured after 24 hrs by inverted microscopy relative to control; assay type: functional; parameters: scale not given: the % may be the effect or the level left
[4] = target: T1, Cathepsin B1 isotype 1 (Schistosoma mansoni) (UniProt Q8MNY2); test: Inhibition of Schistosoma mansoni cathepsin B1 using Z-Phe-Arg-aminomethylcoumarin as substrate at 100 uM by fluorescence method relative to control
T1 sequence (whole entry): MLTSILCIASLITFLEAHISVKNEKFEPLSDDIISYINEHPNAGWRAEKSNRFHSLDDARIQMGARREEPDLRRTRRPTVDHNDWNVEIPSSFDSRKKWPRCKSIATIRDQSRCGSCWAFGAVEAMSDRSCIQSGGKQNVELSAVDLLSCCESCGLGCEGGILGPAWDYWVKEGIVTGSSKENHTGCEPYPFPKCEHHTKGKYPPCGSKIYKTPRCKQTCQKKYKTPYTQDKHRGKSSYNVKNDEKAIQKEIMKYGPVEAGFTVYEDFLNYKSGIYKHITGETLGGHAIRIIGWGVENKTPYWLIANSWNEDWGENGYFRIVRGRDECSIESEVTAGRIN

Schistosoma mansoni [5] = test: Schistosomicidal-activity against Schistosoma mansoni schistosomula incubated for 48 hrs by Alamar Blue assay; assay type: functional, organism-based
Histone deacetylase 8 [6] = target: T2, Histone deacetylase 8 (Schistosoma mansoni, UniProt A5H660); test: Inhibition of Schistosoma mansoni HDAC8 expressed in Escherichia coli using Fluor de Lys as substrate incubated for 90 mins by fluorescence method
T2 sequence (A5H660 whole entry): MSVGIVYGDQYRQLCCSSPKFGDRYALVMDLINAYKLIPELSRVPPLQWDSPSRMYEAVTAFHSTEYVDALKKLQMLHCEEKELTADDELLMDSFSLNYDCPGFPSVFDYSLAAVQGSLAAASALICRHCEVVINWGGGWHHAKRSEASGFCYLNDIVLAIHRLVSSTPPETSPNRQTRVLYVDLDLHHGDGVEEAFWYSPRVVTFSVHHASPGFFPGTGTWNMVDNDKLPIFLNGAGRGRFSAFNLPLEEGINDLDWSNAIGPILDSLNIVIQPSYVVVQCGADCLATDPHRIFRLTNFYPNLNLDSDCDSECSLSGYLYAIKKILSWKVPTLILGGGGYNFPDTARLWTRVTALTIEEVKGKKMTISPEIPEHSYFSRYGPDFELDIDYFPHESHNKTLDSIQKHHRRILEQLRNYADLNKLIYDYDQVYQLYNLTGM

[7] = target: T3, Protein deacetylase HDAC6 (Homo sapiens, UniProt Q9UBN7); test: Inhibition of human HDAC6 using ZMAL(Cbz-(Ac)Lys-AMC as substrate preincubated for 90 mins followed by trypsin addition and measured after 20 mins by fluorimetric method
T3 sequence (Q9UBN7 whole entry): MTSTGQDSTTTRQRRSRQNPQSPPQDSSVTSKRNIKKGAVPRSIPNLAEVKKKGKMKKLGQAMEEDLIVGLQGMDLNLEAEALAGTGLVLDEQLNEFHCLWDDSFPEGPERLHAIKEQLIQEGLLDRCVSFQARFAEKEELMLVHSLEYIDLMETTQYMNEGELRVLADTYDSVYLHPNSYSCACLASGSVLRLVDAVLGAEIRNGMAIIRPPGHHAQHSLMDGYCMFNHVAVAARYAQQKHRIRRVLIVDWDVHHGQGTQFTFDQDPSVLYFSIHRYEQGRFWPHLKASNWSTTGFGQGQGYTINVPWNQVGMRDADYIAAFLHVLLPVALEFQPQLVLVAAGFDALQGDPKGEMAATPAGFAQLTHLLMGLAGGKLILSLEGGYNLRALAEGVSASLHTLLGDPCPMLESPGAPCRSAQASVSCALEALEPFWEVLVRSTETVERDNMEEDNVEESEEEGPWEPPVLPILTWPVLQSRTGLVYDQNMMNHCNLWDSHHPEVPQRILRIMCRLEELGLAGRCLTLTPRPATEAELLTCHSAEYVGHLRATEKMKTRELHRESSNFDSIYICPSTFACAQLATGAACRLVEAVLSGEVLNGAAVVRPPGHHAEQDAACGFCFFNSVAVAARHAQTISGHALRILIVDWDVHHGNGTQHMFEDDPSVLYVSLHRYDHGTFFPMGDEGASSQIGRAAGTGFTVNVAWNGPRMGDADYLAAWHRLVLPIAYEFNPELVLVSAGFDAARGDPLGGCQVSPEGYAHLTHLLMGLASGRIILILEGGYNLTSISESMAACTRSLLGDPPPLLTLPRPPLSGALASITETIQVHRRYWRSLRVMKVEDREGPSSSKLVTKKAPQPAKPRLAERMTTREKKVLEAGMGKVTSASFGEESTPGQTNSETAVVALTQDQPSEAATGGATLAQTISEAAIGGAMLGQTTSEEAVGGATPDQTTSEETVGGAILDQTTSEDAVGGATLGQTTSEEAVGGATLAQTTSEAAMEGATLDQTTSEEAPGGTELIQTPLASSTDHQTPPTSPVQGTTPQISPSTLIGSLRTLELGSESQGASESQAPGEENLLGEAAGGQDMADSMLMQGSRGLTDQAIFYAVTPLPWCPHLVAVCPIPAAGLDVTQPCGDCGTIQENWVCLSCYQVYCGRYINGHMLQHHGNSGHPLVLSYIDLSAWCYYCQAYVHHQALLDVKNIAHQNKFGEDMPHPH

Histone deacetylase 1 = Histone deacetylase 1 (Homo sapiens, UniProt Q13547); test: Inhibition of human HDAC1 (1 to 482 reidue) expressed in sf9 cells using ZMAL(Cbz-(Ac)Lys-AMC as substrate preincubated for 90 mins followed by trypsin addition and measured after 20 mins by fluorimetric method
Histone deacetylase 1, sequence (Q13547 whole entry): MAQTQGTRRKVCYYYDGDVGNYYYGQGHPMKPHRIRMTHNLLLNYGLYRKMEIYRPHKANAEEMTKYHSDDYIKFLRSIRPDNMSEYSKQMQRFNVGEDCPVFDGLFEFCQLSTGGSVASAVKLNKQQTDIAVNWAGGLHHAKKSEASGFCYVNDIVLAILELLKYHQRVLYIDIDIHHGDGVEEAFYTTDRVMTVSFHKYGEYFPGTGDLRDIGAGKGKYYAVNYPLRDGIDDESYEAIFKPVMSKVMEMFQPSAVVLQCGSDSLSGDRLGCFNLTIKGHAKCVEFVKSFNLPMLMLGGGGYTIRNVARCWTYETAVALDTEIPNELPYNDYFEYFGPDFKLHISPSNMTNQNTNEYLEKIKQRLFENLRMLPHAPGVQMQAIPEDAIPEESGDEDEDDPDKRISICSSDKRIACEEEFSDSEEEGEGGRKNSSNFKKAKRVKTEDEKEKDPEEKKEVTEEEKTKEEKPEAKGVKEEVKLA

Histone deacetylase 8 [8] = target: T4, Histone deacetylase 8 (Homo sapiens, UniProt Q9BY41); test: Inhibition of human HDAC8 using Fluor de Lys as substrate incubated for 90 mins by fluorescence method
T4 sequence (Q9BY41 whole entry): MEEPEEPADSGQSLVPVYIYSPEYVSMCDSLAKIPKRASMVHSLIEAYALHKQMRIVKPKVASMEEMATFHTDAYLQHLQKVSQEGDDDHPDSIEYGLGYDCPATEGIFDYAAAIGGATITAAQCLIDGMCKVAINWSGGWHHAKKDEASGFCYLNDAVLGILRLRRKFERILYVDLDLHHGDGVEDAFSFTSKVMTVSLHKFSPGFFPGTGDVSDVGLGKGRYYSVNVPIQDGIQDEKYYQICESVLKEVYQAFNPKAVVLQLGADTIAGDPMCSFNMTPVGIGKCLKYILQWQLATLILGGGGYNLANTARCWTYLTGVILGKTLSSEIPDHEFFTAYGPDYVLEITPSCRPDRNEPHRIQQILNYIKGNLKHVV

Schistosoma mansoni [9] = test: Schistosomicidal-activity against Schistosoma mansoni schistosomula at 20 uM incubated for 48 hrs by Alamar Blue assay relative to control; assay type: functional
Schistosoma mansoni [10] = test: Antischistosomal activity against Schistosoma mansoni Liberian infected in NMRI mouse assessed as worm burden reduction at 200 mg/kg, po measured after 14 days relative to control; assay type: functional; parameters: scale not given: the % may be the effect or the level left; conditions: time 14 day
Schistosoma mansoni [11] = test: microbe, parasite or virus in culture; conditions: Liberian, 72 h
Description: Antischistosomal activity against Schistosoma mansoni Liberian NTS incubated for 72 hrs by microscopic method

Schistosoma mansoni [12] = test: Antischistosomal activity against Schistosoma mansoni Puerto-Rican incubated for 72 hrs by inverted microscopic method; assay type: functional, organism-based
Schistosoma mansoni [13] = test: Antischistosomal activity against Schistosoma mansoni infected in NMRI mouse assessed as worm burden reduction at 400 mg/kg, po administered […] for 4 consecutive days and measured after 14 days relative to control; assay type: functional; parameters: scale not given: the % may be the effect or the level left; conditions: time 14 day
Schistosoma mansoni [14] = test: Antischistosomal activity against adult Schistosoma mansoni assessed as worm death at 10 uM incubated for 120 hrs relative to control; assay type: functional
Schistosoma japonicum [15] = test: Antischistosomal activity against Schistosoma japonicum assessed as worm death at 10 uM incubated for 120 hrs relative to control; assay type: functional; conditions: Schistosoma japonicum
[16] = target: T5, Thioredoxin glutathione reductase (Schistosoma mansoni, UniProt Q962Y6); test: Inhibition of Schistosoma mansoni thioredoxin glutathione reductase incubated for 30 mins by DTNB assay
T5 sequence (Q962Y6 whole entry): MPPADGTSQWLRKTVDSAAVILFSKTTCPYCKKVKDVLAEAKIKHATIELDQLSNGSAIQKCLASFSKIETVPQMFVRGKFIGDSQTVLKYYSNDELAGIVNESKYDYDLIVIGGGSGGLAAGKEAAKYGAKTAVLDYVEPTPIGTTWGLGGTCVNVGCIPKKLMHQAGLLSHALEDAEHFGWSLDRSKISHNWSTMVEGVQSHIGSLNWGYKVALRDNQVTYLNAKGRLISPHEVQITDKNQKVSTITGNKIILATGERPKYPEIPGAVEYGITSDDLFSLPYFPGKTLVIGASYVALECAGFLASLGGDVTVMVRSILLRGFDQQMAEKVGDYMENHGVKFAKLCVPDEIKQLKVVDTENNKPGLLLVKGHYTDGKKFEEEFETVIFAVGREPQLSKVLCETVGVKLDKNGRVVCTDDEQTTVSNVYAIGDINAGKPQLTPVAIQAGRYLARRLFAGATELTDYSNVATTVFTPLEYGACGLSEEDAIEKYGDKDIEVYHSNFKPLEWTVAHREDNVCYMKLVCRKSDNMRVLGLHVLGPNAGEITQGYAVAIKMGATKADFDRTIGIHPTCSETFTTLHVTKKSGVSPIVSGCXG

Schistosoma mansoni [17] = test: Antischistosomal activity against Schistosoma mansoni Schistosomula assessed as worm death at 10 uM incubated for 24 hrs relative to control; assay type: functional
Schistosoma mansoni [18] = test: Antischistosomal activity against juvenile Schistosoma mansoni assessed as worm death at 10 uM incubated for 120 hrs relative to control; assay type: functional
Histone deacetylase 8 [19] = target: T2, Histone deacetylase 8; test: Inhibition of Schistosoma mansoni HDAC8 using fluorogenic substrate by fluorescence method
[20] = target: T3, Protein deacetylase HDAC6; test: Inhibition of human HDAC6 using Z-Lys(Ac)-AMC as substrate by fluorimetric method
[21] = target: T6, HDAC1 (histone deacetylase 1) (Homo sapiens, UniProt Q13547); test: Inhibition of human HDAC1 at 200 uM using Z-Lys(Ac)-AMC as substrate by fluorimetric method relative to control; conditions: HDAC1 enzyme, probe Z-Lys(Ac)-AMC
T6 sequence (Q13547 whole entry): as the sequence (Q13547 whole entry) above

[22] = target: T6, HDAC1 (histone deacetylase 1); test: Inhibition of human HDAC1 using Z-Lys(Ac)-AMC as substrate at 1 uM by fluorimetric method relative to control; conditions: HDAC1 enzyme, probe Z-Lys(Ac)-AMC
Histone deacetylase 8 [23] = target: T4, Histone deacetylase 8; test: Inhibition of human HDAC8 using Fluor de Lys as substrate by fluorimetric method

## O=C(C1CCCCC1)N1CC(=O)N2CCc3ccccc3C2C1 (centres undefined) [PRAZIQUANTEL]
Schistosoma japonicum [1]
  Activity: 62.4%
Schistosoma japonicum [2]
  Activity: 37.5%

## COc1cc(C[C@@H]2C(=O)OC[C@H]2Cc2ccc3c(c2)OCO3)cc(OC)c1OC
Schistosoma mansoni [3]
  Activity: >75%

## O=C(c1ccc(CCl)c([N+](=O)[O-])c1)N1CCOCC1
[4]
  inhibition: < 27%

## O=C(/C=C/c1ccccc1Oc1c(Cl)cccc1Cl)NO
Schistosoma mansoni [5]
  pEC50: 5.19
Histone deacetylase 8 [6]
  pIC50: 6.36
[7]
  pIC50: 5.09
Histone deacetylase 1
  pIC50: 4.69
Histone deacetylase 8 [8]
  pIC50: 6.33
Schistosoma mansoni [9]
  Activity: 89%

## OC(c1cc(-c2ccc(C(F)(F)F)cc2)nc(C(F)(F)F)c1)C1CCCCN1 (centres undefined) [ENPIROLINE]
Schistosoma mansoni [10]
  Activity: >82%

## Clc1cc(Br)ccc1-c1ccc(CNCC2CCNCC2)o1
Schistosoma mansoni [11]
  pIC50: 5.47
Schistosoma mansoni [12]
  pIC50: 5.20
Schistosoma mansoni [13]
  Activity: 18.7%

## COc1ccc(C(Nc2cc(C)ccn2)c2ccc3ccc(C)nc3c2O)cc1 (centres undefined)
Schistosoma mansoni [14]
  mortality at 10 µM: 53%
Schistosoma japonicum [15]
  mortality at 10 µM: 56%
[16]
  pIC50: 6.89
Schistosoma mansoni [17]
  mortality at 10 µM: 20%
Schistosoma mansoni [18]
  mortality at 10 µM: 24%

## O[C@@H](c1cc(-c2ccc(C(F)(F)F)cc2)nc(C(F)(F)F)c1)[C@@H]1CCCCN1
Schistosoma mansoni [10]
  Activity: >82%

## CN1CCN(NC(=O)c2cccc(C(=O)NO)c2)CC1
Histone deacetylase 8 [19]
  pIC50: 6.12
[20]
  pIC50: 5.15
[21]
  inhibition at 200 µM: 15.3%
[22]
  inhibition at 1 µM: < 10%
Histone deacetylase 8 [23]
  pIC50: 5.88

## O=C1OC[C@@H](Cc2ccc3c(c2)OCO3)[C@@H]1Cc1ccc2c(c1)OCO2
Schistosoma mansoni [3]
  Activity: >75%

## COc1ccc(Nc2nc(NCc3ccccc3)c3ccccc3n2)cc1
Schistosoma mansoni [11]
  pIC50: 5.57
Schistosoma mansoni [12]
  pIC50: 6.10
Schistosoma mansoni [13]
  Activity: 0%
